Experimental data taken from article PMC8756595 (ACS Omega, 2021).

Target: bovine erythrocyte CA II (bCA-II) (Bos taurus, UniProt P00921)
Test: In vitro carbonic anhydrase inhibition assay
Assay type: biochemical
Conditions: for % inhibition: bCA-II, substrate 4-NPA, 25 °C, pH 7.4, test concentration not given; for inhibition activity against bCA-II (in words): qualitative statement

Sequence of bovine erythrocyte CA II (bCA-II) (P00921 whole entry): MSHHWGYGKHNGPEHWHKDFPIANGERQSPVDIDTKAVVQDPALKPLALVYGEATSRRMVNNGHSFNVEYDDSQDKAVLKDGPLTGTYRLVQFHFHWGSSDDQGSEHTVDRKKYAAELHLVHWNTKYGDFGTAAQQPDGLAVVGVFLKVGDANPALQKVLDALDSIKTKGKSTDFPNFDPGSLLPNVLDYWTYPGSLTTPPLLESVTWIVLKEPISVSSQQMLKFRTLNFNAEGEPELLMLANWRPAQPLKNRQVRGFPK

SMILES	IC50 [µM]	% inhibition [%]	inhibition activity against bCA-II (in words)
CCCSc1nc2ccccc2n1CC(=O)NN=Cc1cccc(OC)c1O [Compound 9, N′-(2-Hydroxy-3-methoxybenzylidene)-2-(2-(propylthio)-1H-benzo[d]imidazol-1-yl)acetohydrazide]	13.3 ± 1.25	89.1	
CCCSc1nc2ccccc2n1CC(=O)NN=Cc1ccccc1 [Compound 10, N′-Benzylidene-2-(2-(propylthio)-1H-benzo[d]imidazol-1-yl)acetohydrazide]	17.2 ± 1.24	83.0	
CCCSc1nc2ccccc2n1CC(=O)NN=Cc1cccc(OC)c1 [Compound 11, N′-(3-Methoxybenzylidene)-2-(2-(propylthio)-1H-benzo[d]imidazol-1-yl)acetohydrazide]		22.8	inactive
CCCSc1nc2ccccc2n1CC(=O)NN=Cc1cccc2ccccc12 [Compound 12, N′-(Naphthalen-1-ylmethylene)-2-(2-(propylthio)-1H-benzo[d]imidazol-1-yl)acetohydrazide]	14.6 ± 0.62	91.7	
CCCSc1nc2ccccc2n1CC(=O)NN=Cc1ccc(OC)c(OC)c1 [Compound 13, N′-(3,4-Dimethoxybenzylidene)-2-(2-(propylthio)-1H-benzo[d]imidazol-1-yl)acetohydrazide]		38.1	inactive
CCCSc1nc2ccccc2n1CC(=O)NN=Cc1ccc(O)cc1O [Compound 14, N′-(2,4-Dihydroxybenzylidene)-2-(2-(propylthio)-1H-benzo[d]imidazol-1-yl)acetohydrazide]		20.8	inactive
CCCSc1nc2ccccc2n1CC(=O)NN=Cc1ccc(OC)cc1OC [Compound 15, N′-(2,4-Dimethoxybenzylidene)-2-(2-(propylthio)-1H-benzo[d]imidazol-1-yl)acetohydrazide]	14.5 ± 1.05	91.2	
CCCSc1nc2ccccc2n1CC(=O)NN=Cc1ccc(N(CC)CC)cc1 [Compound 16, N′-(4-(Diethylamino)benzylidene)-2-(2-(propylthio)-1H-benzo[d]imidazol-1-yl)acetohydrazide]		5.6	inactive
CCCSc1nc2ccccc2n1CC(=O)NN=Cc1cccc(O)c1 [Compound 17, N′-(3-Hydroxybenzylidene)-2-(2-(propylthio)-1H-benzo[d]imidazol-1-yl)acetohydrazide]	31.4 ± 2.29	90.7	least active inhibitors
CCCSc1nc2ccccc2n1CC(=O)NN=Cc1ccc(O)c(OC)c1 [Compound 18, N′-(4-Hydroxy-3-methoxybenzylidene)-2-(2-(propylthio)-1H-benzo[d]imidazol-1-yl)acetohydrazide]	22.7 ± 1.37	81.2	
CCCSc1nc2ccccc2n1CC(=O)NN=Cc1ccc(C)cc1 [Compound 19, N′-(4-Methylbenzylidene)-2-(2-(propylthio)-1H-benzo[d]imidazol-1-yl)acetohydrazide]		13.6	inactive
CCCSc1nc2ccccc2n1CC(=O)NN=Cc1ccc(O)c(OCC)c1 [Compound 20, N′-(3-Ethoxy-4-hydroxybenzylidene)-2-(2-(propylthio)-1H-benzo[d]imidazol-1-yl)acetohydrazide]	45.5 ± 2.07	67.7	least active inhibitors
CCCSc1nc2ccccc2n1CC(=O)NN=Cc1ccc(C=O)cc1 [Compound 21, N′-(4-Formylbenzylidene)-2-(2-(propylthio)-1H-benzo[d]imidazol-1-yl)acetohydrazide]		42.2	inactive
CCCSc1nc2ccccc2n1CC(=O)NN=Cc1ccc(C(C)C)cc1 [Compound 22, N′-(4-Isopropylbenzylidene)-2-(2-(propylthio)-1H-benzo[d]imidazol-1-yl)acetohydrazide]	24.7 ± 3	90.1	
CCCSc1nc2ccccc2n1CC(=O)NN=Cc1cccs1 [Compound 23, 2-(2-(Propylthio)-1H-benzo[d]imidazol-1-yl)-N′-(thiophen-2-ylmethylene)acetohydrazide]	24.8 ± 1.24	89.8	
CCCSc1nc2ccccc2n1CC(=O)NN=Cc1ccc(F)cc1 [Compound 24, N′-(4-Fluorobenzylidene)-2-(2-(propylthio)-1H-benzo[d]imidazol-1-yl)acetohydrazide]	162 ± 3.54	84.3	least active inhibitors
CCCSc1nc2ccccc2n1CC(=O)NN=Cc1ccco1 [Compound 25, N′-(Furan-2-ylmethylene)-2-(2-(propylthio)-1H-benzo[d]imidazol-1-yl)acetohydrazide]	193 ± 3.24	57.0	least active inhibitors
CCCSc1nc2ccccc2n1CC(=O)NN=Cc1ccc(C)o1 [Compound 26, N′-((5-Methylfuran-2-yl)methylene)-2-(2-(propylthio)-1H-benzo[d]imidazol-1-yl)acetohydrazide]	166 ± 1.61	67.8	least active inhibitors
CCCSc1nc2ccccc2n1CC(=O)NN=Cc1cccc(OC)c1OC [Compound 27, N′-(2,3-Dimethoxybenzylidene)-2-(2-(propylthio)-1H-benzo[d]imidazol-1-yl)acetohydrazide]	55.6 ± 4.25	89.6	least active inhibitors
CCCSc1nc2ccccc2n1CC(=O)NN=Cc1c(Cl)cccc1Cl [Compound 28, N′-(2,6-Dichlorobenzylidene)-2-(2-(propylthio)-1H-benzo[d]imidazol-1-yl)acetohydrazide]	42.1 ± 1.39	67.6	least active inhibitors
CCCSc1nc2ccccc2n1CC(=O)NN=Cc1ccccc1OC [Compound 29, N′-(2-Methoxybenzylidene)-2-(2-(propylthio)-1H-benzo[d]imidazol-1-yl)acetohydrazide]	21 ± 0.74	88.2	
